{"source": "patent US10357486B2", "about": "“Treatment of cognitive impairment with PDE4 inhibitor” (Universiteit Maastricht, priority 2013, dated 2019)", "key": {"[1]": {"test": "Plasma concentration levels of roflumilast and roflumilast-N-oxide in humans", "format": "in vivo, human", "text": "An interim analysis has been performed based on the data of 9 subjects of the Impaired Elderly group and 4 subjects of the Healthy Elderly group. For this purpose, cognitive battery test scores (VLT, SMT, Stroop task and BL-VAS) and concentrations of roflumilast and roflumilast-N-oxide in plasma have been analysed and summarized by dose over each scheduled sampling time using descriptive statistics."}, "phosphodiesterase 4": {"tested_on": "phosphodiesterase 4", "conditions": "after administration of roflumilast; stated as believed; cited from earlier work"}, "[2]": {"tested_on": "spatial memory in male C57BL/6NCrl mice", "test": "Object Location Task (OLT), 24-hour retention interval", "format": "in vivo", "conditions": "for d2 index, discrimination index between the new and familiar objects for T2: given 3 hours after T1, T2 after 24 h, mean (SEM)", "text": "The objective of this study was to evaluate the cognitive improvement effects of Roflumilast on spatial memory employing Object Location Task (OLT) in male C57BL/6NCrl mice. Roflumilast was compared with data of the already established PDE4 inhibitor Rolipram in the same model.\nMaintenance of Animals Twenty-four 7 month-old male C57BL/6NCrl mice (Charles River, L'Arbresle, France) were used (average body weights: 27.6 g). The animals were kept under a 12/12-hour light/dark cycle (lights on from 07.00 pm to 07.00 am) with free access to food and water. All testing was done between 09.00 am and maximally 06.00 pm.\nPreparation of Compounds for Administration Both rolipram (Sigma-Aldrich St. Louis, USA; MW 275.34) and roflumilast (Biocrea, Radebeul, Germany; MW 403.21) were dissolved in dimethylsulfoxide (DMSO) and kept at 4 ° C.; this stock solution was used for further dilutions in 0.5% methylcellulose. Each of rolipram and roflumilast is used in form of its free base. All injected solutions consisted of 0.5% methylcellulose with a fixed DMSO percentages (1.2%) (vehicle).\nObject Location Task Studies in Rodents For the Object Location Task (OLT), doses of 0.01 mg/kg, 0.03 mg/kg and 0.1 mg/kg of Rolipram or Roflumilast or vehicle were administered subcutaneously (s.c.). Based on previous findings, PDE4 inhibitor single administration was performed 3 hours after the first trial as this has an optimum effect on object memory performance. The injection volume was 5 μl/g.\nThe OLT apparatus consisted of a circular arena, 40 cm in diameter. Half of the 40 cm transparent polyvinyl chloride wall was covered from the outside with white paper. Two objects were placed symmetrically about 10 cm away from the wall on the separation line, between the transparent and covered side of the arena. Four different sets of objects were available: (1) a cone made of brass (maximal diameter 6 cm and total height 3.8 cm), (2) a transparent glass bottle (diameter 2.7 cm, height 8.5 cm) filled with sand and water, (3) a massive metal cube (2.5 cm×5 cm×7.5 cm) with two holes (diameter 1.5 cm), and (4) a massive aluminum cube with a tapering top (4.5 cm×4.5 cm×8.5 cm).\nA testing session comprised two trials of 4 minutes. Before each trial, mice were placed in an empty Makrolon cage (incubation cage) for the same amount of time as the trial (4 min). During the first trial (T1), two identical objects were placed symmetrically about 10 cm away from the wall on the separation line between the transparent and covered side of the arena. After the first exploration period of 4 min, the mouse was put back in its home cage. Mice then received treatment at 3 hours post T1. Subsequently, after a predetermined delay interval (24h), the mouse was placed in the apparatus for the second trial of 4 min (T2). Two identical objects as in T1 were used; one object was placed in the previously used position, whereas the other was placed in a novel position. The novel position of the object could either be a fixed distance towards the front or a fixed distance towards the back of the arena for both objects. The times spent exploring each object during T1 and T2 were recorded manually using a personal computer. All objects and locations were used in a balanced manner to exclude possible object and/or location preferences. To avoid olfactory cues, the objects were thoroughly cleaned with 70% ethanol after each trial. The testing order of conditions was determined randomly.\nStatistical Data Analysis The measurements reflected the time spent by the mice in exploring each object during T1 and T2. The time spent in exploring the two identical samples in T1 were represented by ‘a1’ and ‘a2’, respectively. The time spent in exploring the sample and the new object in T2 were represented by ‘a’ and ‘b’, respectively. From these exploration times the following variables were calculated: e1, e2, and d2 (Table 1). The d2 index is a relative measure of discrimination corrected for exploratory activity. […]"}, "[3]": {"tested_on": "xylazine/ketamine induced α2-adrenergic receptor-mediated anesthesia", "test": "xylazine/ketamine induced α2-adrenergic receptor-mediated anesthesia test (emetic potential)", "format": "in vivo", "conditions": "in vivo, 0.3 mg/kg", "text": "Since emesis is a typical side-effect of phosphodiesterase 4 inhibitors the emetic potential of roflumilast and rolipram was investigated in parallel using the xylazine/ketamine induced α2-adrenergic receptor-mediated anesthesia test. The results confirmed that the two phosphodiesterase 4 inhibitors have different effects on emesis."}, "[4]": {"tested_on": "scopolamine induced memory deficit in male Wistar rats", "test": "Object recognition task (ORT), scopolamine induced memory deficit", "format": "in vivo", "conditions": "scopolamine 0.1 mg/kg ip + vehicle", "text": "The objective of this study is to evaluate the efficacious dose range of roflumilast with regard to cognitive improvement effects by using scopolamine induced memory deficit on object memory performance in male Wistar rats. Memory acquisition processes are investigated using the object recognition test (ORT).\nMaintenance of Animals: Sixteen 3-4 month old male Wistar rats (Charles River, Sulzfeld, Germany) were used for the study. All animals were housed individually in standard green line Tecniplast IVC cages on stardust bedding. The animals were housed on a reversed 12/12 h light/dark cycle (lights on from 07:00 pm to 07:00 am) and had free access to food and water. The rats were housed and tested in the same room. A radio, playing softly, provided background noise in the room. All testing was performed between 09:00 am and 06:00 pm.\nPreparation of Compounds: Drugs were prepared daily, except as indicated otherwise. Roflumilast (Takeda, Konstanz, Germany, MW 403.21) was dissolved in 98% methylcellulose solution (0.5% methylcellulose) and 2% Tween 80. Roflumilast in doses of 0 (vehicle), 0.0001, 0.0003, 0.001, 0.003, 0.01 and 0.03 mg/kg was administered intraperitoneally (ip, injection volume 1 ml/kg). Scopolamine (in form of scopolamine hydrobromide) was dissolved in saline (0.9% NaCl). Scopolamine hydrobromide was administered intraperitoneally at a dose of 0.1 mg/kg (ip, injection volume 1 ml/kg). Scopolamine and roflumilast were administered 30 min before T1.\nObject Recognition Task in Rats: The ORT was performed as described elsewhere (Ennaceur and Delaceur, 1988, Behav Brain Res, Vol 31, pp 47-59; Akkerman et al; 2012, Behav Brain Res, Vol 232, pp 335-347). The apparatus consisted of a circular arena, 83 cm in diameter. The back half of the 40 cm high wall was made of grey PVC and the front was made of transparent PVC. Fluorescent red tubes and a light bulb provided a constant illumination of about 20 lux on the floor of the apparatus. The light intensity was equal in the different parts of the apparatus.\nTwo objects were placed in symmetrical positions at the mid-line between the gray and transparent halves of the arena, about ten centimeters away from wall. Four different sets of objects were available: 1) a standard 1 L brown transparent glass bottle (diameter 10 cm, height 22 cm) filled with water, 2) a metal cube (10.0×5.0×7.5 cm) with two holes (diameter 1.9 cm), 3) a cone consisting of a gray PVC base (maximal diameter 18 cm) with a collar on top made of brass (total height 16 cm), and 4) an aluminium cube with a tapering top (13.0×8.0×8.0 cm). Objects were presented to the animals in a balanced manner to avoid object or place biases. Rats were unable to displace the objects.\nA test session comprised two trials, each with durations of 3 min. During the learning trial (T1) the apparatus contains two identical objects (object al and a2). Rats were always introduced into the apparatus with their nose towards the transparent wall segment (i.e. facing outwards to the front of the arena). Subsequently, rats were put back in its home cage for a 1 h interval. After the retention interval, rats were put back into the arena for the […] (T2). In T2, the two objects from T1 were replaced by one identical copy (a3) and a different novel object (b). The times spent in exploring each object during T1 and T2 were recorded manually on a personal computer.\nExploration was defined in the following manner: directing the nose to the object at a distance of no more than 2 cm and/or touching the object with the nose. Sitting on the object was not considered as exploratory behavior. In order to avoid the presence of olfactory cues, the objects were thoroughly cleaned with a 70% ethanol solution before each trial.\nPrior to compound testing, the animals were handled for 5 min on 2 consecutive days and allowed to explore the ORT arena, also for 5 min. […]"}}, "note": "Marks after values point to notes of the source that are not given here.", "data": [{"molecule": "O=C(Nc1c(Cl)c[n+]([O-])cc1Cl)c1ccc(OC(F)F)c(OCC2CC2)c1", "note": "[roflumilast-N-oxide, 3-cyclopropyl-methoxy-4-difluoromethoxy-N-(3,5-dichloro-1-oxypyrid-4-yl)benzamide]", "values": [{"measurement": "exposure (concentrations in plasma)", "setting": "[1]; elderly study, interim analysis, 100, 250, 1000 mcg", "result": "consistent with those previously reported"}, {"measurement": "steady state plasma concentration levels in once a day repeated dosing compared to once a day single dosing", "setting": "[1]; humans, once a day (24 h) regimen", "result": "about two-fold"}, {"measurement": "share of overall phosphodiesterase 4 inhibition in humans", "setting": "phosphodiesterase 4", "result": "more than 90%"}]}, {"molecule": "COc1ccc(C2CNC(=O)C2)cc1OC1CCCC1", "note": "(stereo not drawn) [rolipram]", "values": [{"measurement": "d2 index, discrimination index between the new and familiar objects for T2", "setting": "[2]; 0.01 mg/kg s.c.", "result": "0.08 (0.05)"}, {"measurement": "d2 index compared with the vehicle condition (post-hoc Bonferroni t-test)", "setting": "[2]; 0.03 mg/kg s.c.", "result": "differed significantly from the vehicle condition"}, {"measurement": "d2 index, discrimination index between the new and familiar objects for T2", "setting": "[2]; 0.03 mg/kg s.c.", "result": "0.13 (0.05) #"}, {"measurement": "d2 index compared with zero (one-sample t-test)", "setting": "[2]; 0.03 mg/kg s.c., after twenty-four hours", "result": "significantly differed from zero"}, {"measurement": "d2 index, discrimination index between the new and familiar objects for T2", "setting": "[2]; 0.1 mg/kg s.c.", "result": "0.07 (0.05)"}, {"measurement": "effect on spatial memory measured by the object location task test", "setting": "[2]; single subcutaneous administration of 0.03 mg/kg", "result": "effective"}, {"measurement": "emetic potential", "setting": "[3]", "result": "strong emetic potential"}]}, {"molecule": "CN1[C@@H]2C[C@@H](OC(=O)[C@H](CO)c3ccccc3)C[C@H]1[C@@H]1O[C@@H]12", "note": "[scopolamine]", "values": [{"measurement": "d2 value compared to the vehicle condition (post-hoc Bonferroni t-test)", "setting": "[4]", "result": "significantly lower"}, {"measurement": "d2 (discrimination index)", "setting": "[4]; 1 h retention, mean (SEM)", "result": "0.01 (0.08)"}]}]}
